The values below come from patent US6458832B1, “Carboplatin analogs for cancer treatment” (Unitech Pharmaceuticals, Inc., priority 1999, dated 2002).

Molecules are shown by their SMILES.

The subject of the assay is human squamous carcinoma clone cancer cell line (SCC-1). In words: In-vitro effect on SCC-1 cell growth (cell viability by Coulter Counter). The assay is classed as cell-based. Particulars: for Cell Count/mL: SCC-1 cells, two days after treatment at 37° C., untreated (0 μM) 5.70 × 10^5. The procedure:
The in-vitro effects of sample #01 1700 on human squamous carcinoma clone cancer cell line (SCC-1).
All cell culture plasticware was purchased from Fisher. Media and antibiotics were purchased from Gibco and Sigma.
Cell viability using a Coulter Counter is used to quantify toxicity. SCC-^1 cells are grown in MEM media containing 10% Fetal Bovine Serum, 100 units/ml penicillin, 100 1μ/ml streptomycin, and 2.5 μg/ml fungizone at 37° C. in a 5% CO2 incubator. A 6 well dish is inoculated to 2.0×10^5 cells/well in a total volume of media of 2 ml. Incubation occurs overnight and the cells are ready for treatment the next day.
Stock solution of sample #01 1700 is sterile filtered with a 0.22 μm low protein binding syringe filter. Dilutions are made in fresh MEM-10% FBS.
Two days after treatment at 37° C., cells are harvested and quantified using a Coulter Counter. To harvest, all media is removed and 1 ml of 1× trypsin solution is added per well. Tryspin is in the well for approximately 5 minutes at 37° C. After 5 minutes, 1 ml of fresh MEM-10% FBS is added per well. Upon vigorous mixing to ensure breakup of aggregate cells, dilutions are made in Isoton®II ready for cell counts. Each well is counted twice. Thus, duplicate wells plus duplicate counts yield 4 cell counts per parameter above.

With `CC(N)C(=O)O.CC(N)C(=O)O.[Cl][Pt][Cl]` (stereo not drawn) [#011700, PtCl2[CH3CH(NH)2COOH]2], the “Cell Count/mL” value runs as follows: (20 μM #011700) 600000 mL⁻¹; (30 μM #011700) 580000 mL⁻¹; (40 μM #011700) 520000 mL⁻¹; (50 μM #011700) 440000 mL⁻¹; (60 μM #011700) 380000 mL⁻¹. The “inhibition of the growth of SCC-1 cells in-vitro” value (20-60 μM, two days after treatment) is recorded as “shows inhibition of the growth”.
